We go through nine compounds from paper PMC6065317, “Rice Defensin OsAFP1 is a New Drug Candidate against Human Pathogenic Fungi” (Scientific Reports, 2018).

Where a SMILES comes first, the peptide text is derived from it.

What is called IC50 is the concentration needed to halve the response being measured.

The test system of experiment [1] is Candida species. To be noted: existing antifungal drugs; cited from earlier work. The protocol: In the present study, functional analyses of the antifungal activity of the rice-derived defensin OsAFP1 were performed. […] Since MIC values of the existing antifungal drugs, such as fluconazole, amphotericin B, and caspofungin, are in the 0.01–1 μM range[48], further engineering to enhance its function may be required before OsAFP1 can be used as a drug. On the other hand, OsAFP1 was extremely stable upon heat and serum treatments and exerted its antifungal activity by inducing apop ...

Experiment [2] concerns C. albicans CAI4 (IFM 61937). To be noted: Table 2; synthetic partial peptides against C. albicans, OD650; tested up to 25 μM. The protocol:
Seven microbial strains were used for OsAFP1 antimicrobial activity testing. P. gingivalis ATCC 33277 cells were cultured in modified Gifu anaerobic medium (GAM) (Nissui, Tokyo, Japan) in an anaerobic jar (Mitsubishi Gas Chemical, Tokyo, Japan) in the presence of a deoxygenating regent (AnaeroPack, Mitsubishi Gas Chemical) for 48 h at 37 °C. E. coli K-12 NBRC3301, S. mutans JCM 5705, S. aureus NBRC 12732, and P. acnes JCM 6473 cells were cultured in Luria-Bertani (LB) broth, brain-heart infusion broth (Nissui), trypticase soy broth (BD Biosciences, Franklin Lakes, NJ, USA), and GAM broth (Nissui), respectively, under facultative anaerobic conditions for 4–24 h at 37 °C. C. albicans CAI4 (IFM 61937) cells were cultured in 0.5 × potato dextrose broth (PDB) supplemented with 25 μg/ml of uridine under facultative anaerobic conditions for 14 h at 30 °C. S. cerevisiae BY4742 and S288C cells were cultured in 0.5 × PDB supplemented with 30 μg/ml of uridine, histidine, and lysine and 60 μg/ml of leucine under facultative anaerobic conditions for 14 h at 27 °C. These microbial strains were purchased from the American Type Culture Collection (Manassas, VA, USA), National Institute of Technology and Evaluation (Tokyo, Japan), RIKEN BioResource Center (Tsukuba, Japan), Medical Mycology Research Center (Chiba, Japan), and GE Healthcare (Little Chalfont, UK).
Antifungal assays to determine the MIC of OsAFP1 were performed as follows. Fungal cells (1 × 10^5 cells) were suspended in 100 μl of the appropriate medium containing 0–32 μM OsAFP1 in 96-well Costar cell culture plates. After incubation, OD650 was measured using a plate reader. […] In those cases, the cultures were plated on agar plates (0.5 × PDB), and the peptide concentration at which viable cell numbers were 1% or less than that in the control culture was considered the MIC. GraphPad Prism version 6.00 for Macintosh (GraphPad Software, La Jolla, CA, USA) was used to calculate IC50 values. Experiments were independently repeated at least three times. Detailed growth conditions for each fungus are provided in the “Microorganisms and culture conditions” section above.

For `C[C@@H]1[C@H](O)[C@@H](C)/C=C/C=C/C=C/C=C/C=C/C=C/C=C/[C@H](O[C@@H]2O[C@H](C)[C@@H](O)[C@H](N)[C@@H]2O)C[C@@H]2O[C@](O)(C[C@@H](O)C[C@@H](O)[C@H](O)CC[C@@H](O)C[C@@H](O)CC(=O)O[C@H]1C)C[C@H](O)[C@H]2C(=O)O` [amphotericin B], the MIC values in experiment [1] was 0.01 to 1 µM.
In experiment [2], `CSCC[C@H](NC(=O)CNC(=O)[C@H](CCCCN)NC(=O)[C@H](Cc1ccccc1)NC(=O)[C@H](CCCNC(=N)N)NC(=O)[C@H](Cc1c[nH]cn1)NC(=O)[C@@H](N)CO)C(=O)N[C@@H](CS)C(=O)N[C@H](C(=O)N[C@@H](CO)C(=O)O)C(C)C` [compound 2] (H-SHRFKGMCVS-OH) came in with an IC50 of 19 µM.
Same read-out and setting: with `CC(C)[C@H](N)C(=O)N[C@@H](CO)C(=O)N[C@@H](CO)C(=O)N[C@@H](CC(N)=O)C(=O)N[C@@H](CC(N)=O)C(=O)N[C@@H](CS)C(=O)N[C@@H](C)C(=O)N[C@@H](CC(N)=O)C(=O)N[C@H](C(=O)O)C(C)C` [compound 3] (H-VSSNNCANV-OH) the figure was more than 25 µM.
For the compound `C[C@@H](O)[C@H](NC(=O)[C@@H](N)CCCNC(=N)N)C(=O)N[C@@H](CCC(=O)O)C(=O)N[C@@H](CO)C(=O)N[C@@H](Cc1ccccc1)C(=O)N1CCC[C@H]1C(=O)N[C@@H](CC(=O)O)C(=O)NCC(=O)N[C@@H](CCC(=O)O)C(=O)O` [compound 5] (H-RTESFPDGE-OH), in experiment [2], the IC50 was more than 25 µM.
Same read-out and setting: for `NCCCC[C@H](NC(=O)[C@H](CS)NC(=O)[C@H](CCC(=O)O)NC(=O)CNC(=O)[C@H](CC(=O)O)NC(=O)[C@@H]1CCCN1C(=O)[C@@H](N)Cc1ccccc1)C(=O)N[C@@H](CO)C(=O)N[C@@H](Cc1c[nH]cn1)C(=O)NCC(=O)O` [compound 6] (H-FPDGECKSHG-OH) the value was more than 25 µM.
In the case of `OC(Cn1cncn1)(Cn1cncn1)c1ccc(F)cc1F` [fluconazole], the MIC values in experiment [1] was 0.01 to 1 µM.
The compound `CC(C)C[C@H](NC(=O)[C@H](CS)NC(=O)[C@H](Cc1c[nH]cn1)NC(=O)[C@@H](N)CCCNC(=N)N)C(=O)N[C@@H](CO)C(=O)N[C@@H](CCC(N)=O)C(=O)N[C@@H](CO)C(=O)N[C@@H](Cc1c[nH]cn1)C(=O)N[C@@H](CCCNC(=N)N)C(=O)N[C@@H](Cc1ccccc1)C(=O)O` [peptide 1] (H-RHCLSQSHRF-OH) yielded a concentration for half-maximal inhibition (IC50) in experiment [2] of 6 µM.
In the case of `CC(C)C[C@H](NC(=O)CNC(=O)[C@H](Cc1c[nH]cn1)NC(=O)[C@H](CO)NC(=O)[C@@H](N)CCCCN)C(=O)N[C@@H](CCC(=O)O)C(=O)N[C@@H](CCCNC(=N)N)C(=O)N[C@@H](CCCCN)C(=O)N[C@@H](CS)C(=O)N[C@@H](Cc1ccccc1)C(=O)O` [peptide 7] (H-KSHGLERKCF-OH), the IC50 in experiment [2] was 10 µM.
For the compound caspofungin, in experiment [1], the MIC values was 0.01 to 1 µM.
